Experimental data as given in patent US10770169B2, “Method of providing a treatment to a subject based on a dynamic pathway map” (THE REGENTS OF THE UNIVERSITY OF CALIFORNIA, priority 2010, dated 2020).
Where two headings read alike, the source gives them in different places.

System: panel of 55 breast cancer cell lines
Experiment: Cell growth inhibition assay (Cell Titer Glo, 72 h, 9 doses; GI50, TGI, LC50)
Assay type: cell-based, human

**Q.** What does the source list for `COc1cccc(-c2cc(=O)c3ccccc3o2)c1N` [PD 98059]?
**A.** GI50 (AU565 cell line, censored GI50 values, value is the negative log10 of mol/L): 5.12; GI50 (CAMA1 cell line, censored GI50 values, value is the negative log10 of mol/L): 4.65; GI50 (HCC1187 cell line, censored GI50 values, value is the negative log10 of mol/L): 5.56; GI50 (HCC1937 cell line, censored GI50 values, value is the negative log10 of mol/L): 4.50; GI50 (cell line 600MPE, value is the negative log10 of mol/L): 4.30; GI50 (cell line AU565, value is the negative log10 of mol/L): 5.12; GI50 (cell line BT20, value is the negative log10 of mol/L): 4.04; GI50 (cell line BT474, value is the negative log10 of mol/L): 4.00; GI50 (cell line BT483, value is the negative log10 of mol/L): 4.12; GI50 (cell line CAMA1, value is the negative log10 of mol/L): 4.65; GI50 (cell line HCC70, value is the negative log10 of mol/L): 4.30; GI50 (cell line HCC1143, value is the negative log10 of mol/L): 4.00; GI50 (cell line HCC1187, value is the negative log10 of mol/L): 5.56; GI50 (cell line HCC1395, value is the negative log10 of mol/L): 4.00; GI50 (cell line HCC1419, value is the negative log10 of mol/L): 4.20; GI50 (cell line HCC1428, value is the negative log10 of mol/L): 4.12; GI50 (cell line HCC1806, value is the negative log10 of mol/L): 4.30; GI50 (cell line HCC1937, value is the negative log10 of mol/L): 4.50; GI50 (cell line HCC1954, value is the negative log10 of mol/L): 4.30; GI50 (cell line HCC2185, value is the negative log10 of mol/L): 4.55; GI50 (cell line MDAMB134V, value is the negative log10 of mol/L): 4.12; GI50 (cell line MDAMB175V, value is the negative log10 of mol/L): 4.24; GI50 (cell line MDAMB361, value is the negative log10 of mol/L): 4.30; GI50 (cell line MDAMB468, value is the negative log10 of mol/L): 4.32; GI50 (cell line SKBR3, value is the negative log10 of mol/L): 4.73; GI50 (cell line SUM52PE, value is the negative log10 of mol/L): 4.92; GI50 (cell line SUM149PT, value is the negative log10 of mol/L): 4.44; GI50 (cell line SUM159PT, value is the negative log10 of mol/L): 4.30; GI50 (cell line SUM185PE, value is the negative log10 of mol/L): 4.88; GI50 (cell line SUM225CWN, value is the negative log10 of mol/L): 4.42; GI50 (cell line SUM1315MO, value is the negative log10 of mol/L): 4.30; GI50 (cell line T47D, value is the negative log10 of mol/L): 4.30; GI50 (cell line UACC812, value is the negative log10 of mol/L): 4.27; GI50 (cell line ZR75B, value is the negative log10 of mol/L): 4.00; GI50 (cell line ZR751, value is the negative log10 of mol/L): 4.32

**Q.** What does the source list for `Cc1ccc(C(=O)N(CCCN)[C@@H](c2nc3cc(Cl)ccc3c(=O)n2Cc2ccccc2)C(C)C)cc1` [Ispinesib]?
**A.** GI50 (Homo sapiens, AU565, cell line AU565, censored GI50 values, read-out: GI50 (converted)): 22.4 nM; GI50 (Homo sapiens, AU565, cell line AU565, read-out: GI50 (converted)): 22.4 nM; GI50 (Homo sapiens, BT-20, cell line BT20, censored GI50 values, read-out: GI50 (converted)): 17 nM; GI50 (Homo sapiens, BT-20, cell line BT20, read-out: GI50 (converted)): 17 nM; GI50 (Homo sapiens, BT-474, cell line BT474, censored GI50 values, read-out: GI50 (converted)): 51.3 nM; GI50 (Homo sapiens, BT-474, cell line BT474, read-out: GI50 (converted)): 51.3 nM; GI50 (Homo sapiens, BT-483, cell line BT483, censored GI50 values, read-out: GI50 (converted)): 0.049 nM; GI50 (Homo sapiens, BT-483, cell line BT483, read-out: GI50 (converted)): 0.049 nM; GI50 (Homo sapiens, BT-549, cell line BT549, censored GI50 values, read-out: GI50 (converted)): 46.8 nM; GI50 (Homo sapiens, BT-549, cell line BT549, read-out: GI50 (converted)): 46.8 nM; GI50 (Homo sapiens, CAMA-1, cell line CAMA1, censored GI50 values, read-out: GI50 (converted)): 31.6 nM; GI50 (Homo sapiens, CAMA-1, cell line CAMA1, read-out: GI50 (converted)): 31.6 nM; GI50 (Homo sapiens, HCC38, cell line HCC38, censored GI50 values, read-out: GI50 (converted)): 46.8 nM; GI50 (Homo sapiens, HCC38, cell line HCC38, read-out: GI50 (converted)): 46.8 nM; GI50 (Homo sapiens, HCC70, cell line HCC70, censored GI50 values, read-out: GI50 (converted)): 45.7 nM; GI50 (Homo sapiens, HCC70, cell line HCC70, read-out: GI50 (converted)): 45.7 nM; GI50 (Homo sapiens, HCC202, cell line HCC202, censored GI50 values, read-out: GI50 (converted)): 7.59 nM; GI50 (Homo sapiens, HCC202, cell line HCC202, read-out: GI50 (converted)): 7.59 nM; GI50 (Homo sapiens, HCC1143, cell line HCC1143, censored GI50 values, read-out: GI50 (converted)): 51.3 nM; GI50 (Homo sapiens, HCC1143, cell line HCC1143, read-out: GI50 (converted)): 51.3 nM; GI50 (Homo sapiens, HCC1187, cell line HCC1187, censored GI50 values, read-out: GI50 (converted)): 26.9 nM; GI50 (Homo sapiens, HCC1187, cell line HCC1187, read-out: GI50 (converted)): 26.9 nM; GI50 (Homo sapiens, HCC1395, cell line HCC1395, censored GI50 values, read-out: GI50 (converted)): 27.5 nM; GI50 (Homo sapiens, HCC1395, cell line HCC1395, read-out: GI50 (converted)): 27.5 nM; GI50 (Homo sapiens, HCC1419, cell line HCC1419, censored GI50 values, read-out: GI50 (converted)): 6760 nM; GI50 (Homo sapiens, HCC1419, cell line HCC1419, read-out: GI50 (converted)): 6760 nM; GI50 (Homo sapiens, HCC1428, cell line HCC1428, censored GI50 values, read-out: GI50 (converted)): 4470 nM; GI50 (Homo sapiens, HCC1428, cell line HCC1428, read-out: GI50 (converted)): 4470 nM; GI50 (Homo sapiens, HCC1500, cell line HCC1500, censored GI50 values, read-out: GI50 (converted)): 33.9 nM; GI50 (Homo sapiens, HCC1500, cell line HCC1500, read-out: GI50 (converted)): 33.9 nM; GI50 (Homo sapiens, HCC1806, cell line HCC1806, censored GI50 values, read-out: GI50 (converted)): 28.8 nM; GI50 (Homo sapiens, HCC1806, cell line HCC1806, read-out: GI50 (converted)): 28.8 nM; GI50 (Homo sapiens, HCC1937, cell line HCC1937, censored GI50 values, read-out: GI50 (converted)): 282 nM; GI50 (Homo sapiens, HCC1937, cell line HCC1937, read-out: GI50 (converted)): 282 nM; GI50 (Homo sapiens, HCC1954, cell line HCC1954, censored GI50 values, read-out: GI50 (converted)): 30.9 nM; GI50 (Homo sapiens, HCC1954, cell line HCC1954, read-out: GI50 (converted)): 30.9 nM; GI50 (Homo sapiens, MCF7, cell line MCF7, censored GI50 values, read-out: GI50 (converted)): 38 nM; GI50 (Homo sapiens, MCF7, cell line MCF7, read-out: GI50 (converted)): 38 nM; GI50 (Homo sapiens, MDA-MB-134-VI, cell line MDAMB134VI, censored GI50 values, read-out: GI50 (converted)): 43.7 nM; GI50 (Homo sapiens, MDA-MB-157, cell line MDAMB157, censored GI50 values, read-out: GI50 (converted)): 31.6 nM; GI50 (Homo sapiens, MDA-MB-175-VII, cell line MDAMB175VII, censored GI50 values, read-out: GI50 (converted)): 1700 nM; GI50 (Homo sapiens, MDA-MB-231, cell line MDAMB231, censored GI50 values, read-out: GI50 (converted)): 31.6 nM; GI50 (Homo sapiens, MDA-MB-361, cell line MDAMB361, censored GI50 values, read-out: GI50 (converted)): 33.9 nM; GI50 (Homo sapiens, MDA-MB-415, cell line MDAMB415, censored GI50 values, read-out: GI50 (converted)): 75.9 nM; GI50 (Homo sapiens, MDA-MB-436, cell line MDAMB436, censored GI50 values, read-out: GI50 (converted)): 38.9 nM; GI50 (Homo sapiens, MDA-MB-453, cell line MDAMB453, censored GI50 values, read-out: GI50 (converted)): 42.7 nM; GI50 (Homo sapiens, MDA-MB-468, cell line MDAMB468, censored GI50 values, read-out: GI50 (converted)): 19.1 nM; GI50 (Homo sapiens, SK-BR-3, cell line SKBR3, censored GI50 values, read-out: GI50 (converted)): 33.9 nM; GI50 (Homo sapiens, SUM52PE, cell line SUM52PE, censored GI50 values, read-out: GI50 (converted)): 28.8 nM; GI50 (Homo sapiens, SUM149PT, cell line SUM149PT, censored GI50 values, read-out: GI50 (converted)): 33.1 nM; GI50 (Homo sapiens, SUM185PE, cell line SUM185PE, censored GI50 values, read-out: GI50 (converted)): 110 nM; GI50 (Homo sapiens, SUM225CWN, cell line SUM225CWN, censored GI50 values, read-out: GI50 (converted)): 105 nM; GI50 (Homo sapiens, SUM1315MO2, cell line SUM1315MO2, censored GI50 values, read-out: GI50 (converted)): 40.7 nM; GI50 (Homo sapiens, SUM-159-PT, cell line SUM159PT, censored GI50 values, read-out: GI50 (converted)): 47.9 nM; GI50 (Homo sapiens, T47D, cell line T47D, censored GI50 values, read-out: GI50 (converted)): 83.2 nM; GI50 (Homo sapiens, UACC-893, cell line UACC893, censored GI50 values, read-out: GI50 (converted)): 10.5 nM; GI50 (Homo sapiens, ZR-75-1, cell line ZR751, censored GI50 values, read-out: GI50 (converted)): 89.1 nM; GI50 (Homo sapiens, ZR-75B, cell line ZR75B, censored GI50 values, read-out: GI50 (converted)): 132 nM; GI50 (Homo sapiens, cell line 600MPE, censored GI50 values, read-out: GI50 (converted)): 20.9 nM; GI50 (Homo sapiens, cell line 600MPE, read-out: GI50 (converted)): 20.9 nM; GI50 (Homo sapiens, cell line HCC2185, censored GI50 values, read-out: GI50 (converted)): 29.5 nM; GI50 (Homo sapiens, cell line HCC2185, read-out: GI50 (converted)): 29.5 nM; GI50 (Homo sapiens, cell line HCC3153, censored GI50 values, read-out: GI50 (converted)): 28.2 nM; GI50 (Homo sapiens, cell line HCC3153, read-out: GI50 (converted)): 28.2 nM; GI50 (Homo sapiens, cell line LY2, censored GI50 values, read-out: GI50 (converted)): 22.9 nM; GI50 (Homo sapiens, cell line LY2, read-out: GI50 (converted)): 22.9 nM
